Converted amounts (≈) assume the structure as drawn. Where two headings read alike, the source gives them in different places.
Tests used:
AChE = conditions: Figure 2; cited from earlier work
B. subtilis QB-928 = assay: Antibacterial assay, disc diffusion method (inhibition zone and MIC); format: cell-based; conditions: for Inhibition Zone: disc diffusion; for Inhibition Zone / zone of inhibition at 25 µg/disc: 25 μg per disc, includes 5.6 mm disc diameter; for zone of inhibition at 25 µg/disc: QB928, disc diffusion
Protocol: (§1) The evaluation of in vitro antibacterial activity of synthesized compounds was performed against two bacterial strains, namely Gram +ve B. subtilis QB-928 and Gram −ve E. coli AB-274 using the disc diffusion method.
(§2) The antibacterial potential of all targeted compounds was evaluated using the disc diffusion method. A suspension of 100 μL containing 10^8 cfu/mL of bacteria was applied on nutrient agar media with the support of a sterilized loop. The compound solution was infused into sterilized filter paper discs (5.6 mm in diameter) at a particular concentration (25 μg/100 μL) in chloroform. The standard penicillin (25 μg per disc) was utilized as a positive control for antibacterial assay. These discs were carefully placed on agar which had originally been […] with selected bacterial cells. The agar culture plates were stored at 4 °C for 1 h and then the bacterial culture plate was incubated at 27 °C for 24 h. The inhibition zone was determined in millimeters (including the 5.6 mm disc diameter) with a reference control.

E. coli AB-274 = assay: as above; format: cell-based; conditions: for Inhibition Zone / zone of inhibition at 25 µg/disc: disc diffusion, 25 μg per disc, includes 5.6 mm disc diameter
Protocol: as §1
as §2, with “The compound solution was infused into sterilized filter paper discs (5.6 mm in diameter) at a particular concentration (25 μg/100 μL) in chloroform.” left out, “The inhibition zone was determined in millimeters (including the 5.6 mm disc diameter) with a reference control.” left out

[1] = biological target: acetylcholinesterase (AChE) (Homo sapiens, UniProt P22303); assay: AChE inhibition assay (modified Ellman's method); format: biochemical; conditions: for inhibition at 500 µM: 0.5 mM; for IC50: Ellman's method
acetylcholinesterase (AChE), sequence (P22303 32-614): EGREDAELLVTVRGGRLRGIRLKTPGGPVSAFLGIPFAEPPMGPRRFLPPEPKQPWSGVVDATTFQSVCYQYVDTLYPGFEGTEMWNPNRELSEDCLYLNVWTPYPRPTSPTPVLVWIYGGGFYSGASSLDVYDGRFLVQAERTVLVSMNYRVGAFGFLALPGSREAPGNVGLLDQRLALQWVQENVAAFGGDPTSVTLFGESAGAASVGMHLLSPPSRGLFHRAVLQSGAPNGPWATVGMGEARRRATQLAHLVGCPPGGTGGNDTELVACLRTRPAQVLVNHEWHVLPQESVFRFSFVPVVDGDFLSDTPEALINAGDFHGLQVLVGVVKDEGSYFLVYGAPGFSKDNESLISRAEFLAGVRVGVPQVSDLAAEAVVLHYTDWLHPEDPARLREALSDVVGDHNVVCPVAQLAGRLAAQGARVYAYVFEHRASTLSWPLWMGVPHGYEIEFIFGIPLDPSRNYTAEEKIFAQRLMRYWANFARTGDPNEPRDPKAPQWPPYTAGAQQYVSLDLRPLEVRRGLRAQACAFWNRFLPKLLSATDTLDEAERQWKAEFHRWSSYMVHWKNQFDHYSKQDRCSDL
Protocol: The inhibitory effects of all synthesized derivatives on AChE activities were measured using a modified Ellman’s method. This experimental study used DTNB (5,5′-dithio-bis(2-nitro-benzoic)acid) and AChI as the […]. The tested compounds (10 µL; […]) were mixed with AChE (50 µL; 38 U) solution and incubated for 10 min at 25 °C. DTNB (50 µL; 0.3 mM) was then added. The transfer of AChI (200 µL; 50 mM Tris/HCl buffer pH = 8) initiated the reaction. A spectrophotometer recorded the hydrolysis of AChI by the formation of yellow 5-thio-2-nitrobenzoate anions as a result of the reaction of DTNB with thiocholine at a wavelength of 412 nm. […] The given formula was used to calculate the (%) inhibition: Inhibition %=Control−Test/Control×100
IC50 values were calculated using data from GraphPad Prism 5 software.

[2] = Escherichia coli, AB274, E. coli
[3] = Bacillus subtilis, QB928, read-out: MIC
[4] = Escherichia coli, AB274, E. coli, read-out: MIC

Compound: Cc1cc(C)cc(C[n+]2ccc(-c3cc4ccccc4o3)cc2)c1 [Compound 1a]
- IC50 (AChE): 4.1 ± 1.5 nM

Compound: O=C(NCCCNc1c2c(nc3cc(Cl)ccc13)CCCC2)c1cc2ccccc2o1 [Compound 1b]
- IC50 (AChE): 120 nM

Compound: COc1cccc2cc(C(=O)NCCCCNC(=O)c3cc4ccccc4o3)c(=O)oc12 [Compound 1c]
- IC50 (AChE): 180 ± 50 nM

Compound: COc1cccc2cc(C(=O)NCCn3ccc(=O)c(OCc4ccccc4)c3C)oc12 [Compound 1d]
- IC50 (AChE): 76000 nM

Compound: O=C(CSc1nnc(-c2cc3cc(Br)ccc3o2)n1-c1ccccc1)Nc1ccccc1 [Compound 10a, 2-((5-(5-bromobenzofuran-2-yl)-4-phenyl-4H-1,2,4-triazol-3-yl)thio)-N-phenylacetamide]
- Inhibition Zone (B. subtilis QB-928): no detectable results
- MIC (E. coli AB-274; E. coli): 1.80 µg/mL (≈ 3.56 µM)
- Inhibition Zone (E. coli AB-274; E. coli): 38 ± 1.50 mm
- MIC (E. coli AB-274; Escherichia coli, AB274): 1.8 ± 0.25 µg/mL (≈ 3.56 µM)
- zone of inhibition at 25 µg/disc (E. coli AB-274; [2]): 38 mm
- inhibition at 500 µM [1]: 65.8 ± 1.5%
- IC50 [1]: 880 ± 500 nM

Compound: Cc1ccc(NC(=O)CSc2nnc(-c3cc4cc(Br)ccc4o3)n2-c2ccccc2)cc1C [Compound 10b, 2-((5-(5-Bromobenzofuran-2-yl)-4-phenyl-4H-1,2,4-triazol-3-yl)thio)-N-(3,4-dimethylphenyl)acetamide]
- MIC (B. subtilis QB-928): 1.25 µg/mL (≈ 2.34 µM)
- zone of inhibition at 25 µg/disc (B. subtilis QB-928; Bacillus subtilis): 42 mm
- MIC (B. subtilis QB-928; [3]): 1.25 ± 0.6 µg/mL (≈ 2.34 µM)
- Inhibition Zone (B. subtilis QB-928): 42 ± 1.00 mm
- Inhibition Zone (E. coli AB-274; E. coli): 11.5 ± 1.40 mm
- zone of inhibition at 25 µg/disc (E. coli AB-274; [2]): 11.5 mm
- MIC (E. coli AB-274; [4]): 3.8 ± 2.1 µg/mL (≈ 7.12 µM)
- inhibition at 500 µM [1]: 61.7 ± 1.5%
- IC50 [1]: 1500 ± 1000 nM

Compound: O=C(CSc1nnc(-c2cc3cc(Br)ccc3o2)n1-c1ccccc1)Nc1ccc([N+](=O)[O-])cc1 [Compound 10c, 2-((5-(5-Bromobenzofuran-2-yl)-4-phenyl-4H-1,2,4-triazol-3-yl)thio)-N-(4-nitrophenyl)acetamide]
- Inhibition Zone (B. subtilis QB-928): no detectable results
- Inhibition Zone (E. coli AB-274; E. coli): 28 ± 0.00 mm
- zone of inhibition at 25 µg/disc (E. coli AB-274; [2]): 28 mm
- MIC (E. coli AB-274; [4]): 2.5 ± 0.7 µg/mL (≈ 4.54 µM)
- inhibition at 500 µM [1]: 55.9 ± 1.25%
- IC50 [1]: 2280 ± 1750 nM

Compound: COc1ccc(OC)c(NC(=O)CSc2nnc(-c3cc4cc(Br)ccc4o3)n2-c2ccc(Cl)c(Cl)c2)c1 [Compound 10d, 2-((5-(5-Bromobenzofuran-2-yl)-4-(3,4-dichlorophenyl)-4H-1,2,4-triazol-3-yl)thio)-N-(2,5-dimethoxyphenyl)acetamide]
- zone of inhibition at 25 µg/disc (B. subtilis QB-928; Bacillus subtilis): 11 mm
- MIC (B. subtilis QB-928; [3]): 9.25 ± 1.25 µg/mL (≈ 14.6 µM)
- Inhibition Zone (B. subtilis QB-928): 11 ± 0.50 mm
- Inhibition Zone (E. coli AB-274; E. coli): 12 ± 0.65 mm
- zone of inhibition at 25 µg/disc (E. coli AB-274; [2]): 12 mm
- MIC (E. coli AB-274; [4]): 16 ± 1 µg/mL (≈ 25.2 µM)
- inhibition at 500 µM [1]: 81.45 ± 0.5%
- IC50 [1]: 550 ± 1000 nM

Compound: O=C(CSc1nnc(-c2cc3cc(Br)ccc3o2)n1-c1ccc(Cl)c(Cl)c1)Nc1ccc(Cl)c(Cl)c1 [Compound 10e, 2-((5-(5-Bromobenzofuran-2-yl)-4-(3,4-dichlorophenyl)-4H-1,2,4-triazol-3-yl)thio)-N-(3,4-dichlorophenyl)acetamide]
- zone of inhibition at 25 µg/disc (B. subtilis QB-928; Bacillus subtilis): 8 mm
- MIC (B. subtilis QB-928; [3]): 14 ± 1.8 µg/mL (≈ 21.8 µM)
- Inhibition Zone (B. subtilis QB-928): 8 ± 0.75 mm
- Inhibition Zone (E. coli AB-274; E. coli): 24 ± 0.50 mm
- zone of inhibition at 25 µg/disc (E. coli AB-274; [2]): 24 mm
- MIC (E. coli AB-274; [4]): 2.5 ± 1.4 µg/mL (≈ 3.89 µM)
- inhibition at 500 µM [1]: 51.2 ± 1.24%
- IC50 [1]: 1980 ± 250 nM

Compound: penicillin [reference compound]
- MIC (B. subtilis QB-928): 1 ± 1.50 µg/mL
- Inhibition Zone (B. subtilis QB-928): 18 ± 0.50 mm
- Inhibition Zone (B. subtilis QB-928; listed as penicillin): 18 mm
- MIC (B. subtilis QB-928; listed as penicillin): 1 µg/mL
- MIC (E. coli AB-274; E. coli): 2.4 ± 1.00 µg/mL
- Inhibition Zone (E. coli AB-274; E. coli): 24 ± 0.50 mm

— PMC10459521, “Unfolding the Antibacterial Activity and Acetylcholinesterase Inhibition Potential of Benzofuran-Triazole Hybrids: Synthesis, Antibacterial, Acetylcholinesterase Inhibition, and Molecular Docking Studies” (Molecules, 2023)
